Source: patent US10336702B2, “Pharmaceutically active compounds” (BERGENBIO ASA, priority 2015, dated 2019)

Tests used:
Akt3 = target: T1, Akt3 (Homo sapiens, UniProt Q9Y243); assay: Akt activation assay (PDK1-mediated activation, LANCE Ultra crosstide TR-FRET), Akt3; assay type: biochemical; conditions: read-out: Biological Assay 1 IC50 (nM) Akt3
T1 construct: unspecified tag, removed (detagged) (cleaved yes); purchased SignalChem and Proteros (Akt3); Merck Millipore (PDK1) 14-452 (PDK1); none given for Akt3
T1 sequence (Q9Y243 whole entry): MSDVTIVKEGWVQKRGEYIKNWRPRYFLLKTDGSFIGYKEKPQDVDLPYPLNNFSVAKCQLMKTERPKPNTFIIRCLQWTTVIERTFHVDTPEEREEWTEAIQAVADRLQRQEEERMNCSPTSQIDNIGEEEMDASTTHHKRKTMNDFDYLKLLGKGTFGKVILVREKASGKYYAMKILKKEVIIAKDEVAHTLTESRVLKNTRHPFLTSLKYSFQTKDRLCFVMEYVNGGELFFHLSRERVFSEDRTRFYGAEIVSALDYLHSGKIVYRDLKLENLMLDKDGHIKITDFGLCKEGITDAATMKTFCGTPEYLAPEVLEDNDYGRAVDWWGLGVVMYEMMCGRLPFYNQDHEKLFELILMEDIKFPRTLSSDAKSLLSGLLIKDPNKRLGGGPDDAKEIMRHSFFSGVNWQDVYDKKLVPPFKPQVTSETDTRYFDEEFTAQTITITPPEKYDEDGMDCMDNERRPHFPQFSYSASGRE
Protocol: (§1) Biological Assay 1: Akt Activation Assay
(§2) Addition of a Europium-labelled antibody specific to the phosphopeptide allows energy transfer from the Europium donor to the Ultra Ulight™ acceptor if close enough in proximity.
(§3) Full length active His6-tagged PDK1 was obtained from Merck Millipore (14-452).
(§4) 1× assay buffer (AB): 50 mM HEPES pH 7.5, 1 mM EGTA, 10 mM MgCl2, 0.01% Tween. Immediately before use, DTT to a concentration of 2 mM was added.
(§5) To prepare lipid vesicles: 1 mg/ml PtdIns(3,4,5)P3 solution (in 10 mM HEPES 7.5) was added to 16.7 mg/ml DOPS/DOPC mixture (in 10 mM HEPES pH 7.5) in a ratio of 1:8.3. MilliQ water was added to the solution to generate concentrations of 400 μM DOPS, 400 μM DOPC and 40 μM PtdIns(3,4,5)P3. The mixture was subjected to 5× freeze/thaw cycles and aliquots stored at −20° C.
(§6) 5 μL enzyme in 1×AB was incubated with 2.5 μL test compound. To start the reaction 2.5 μL reaction mix was added which consisted of PDK1, lipid preparations, crosstide and ATP in 1×AB. Final assay concentrations were as follows: 1% DMSO, 5 nM SignalChem Akt1/15 nM SignalChem Akt2/3 nM Signalchem Akt3/5 nM Proteros Akt1/5 nM proteros Akt2/5 nM Proteros Akt3, 5 nM PDK1, 5.5 μM DOPS, 5.5 μM DOPC, 0.55 μM PtdIns(3,4,5)P3, 100 μM ATP, 100 nM LANCE® Ultra Ulight™-Crosstide. After 30 min, the reaction was stopped using 5 μL 40 μM EDTA in 1× Detection buffer for 5 min. For detection, 5 μL 8 nM LANCE® Ultra Europium-anti-phospho-Crosstide antibody in 1× Detection buffer was added to each well and incubated for 1 h. Plates read with the EnVision® Multilabel Plate Reader, excitation at 320 nm and emission at 665 nm and 615 nm. Compound IC50 was determined using a 4-parameter equation.

Akt2 = target: T2, Akt2 (Homo sapiens, UniProt P31751); assay: Akt activation assay (PDK1-mediated activation, LANCE Ultra crosstide TR-FRET), Akt2; assay type: biochemical; conditions: read-out: Biological Assay 1 IC50 (nM) Akt2
T2 construct: unspecified tag, removed (detagged) (cleaved yes); purchased SignalChem and Proteros (Akt2); Merck Millipore (PDK1) 14-452 (PDK1); none given for Akt2
T2 sequence (P31751 whole entry): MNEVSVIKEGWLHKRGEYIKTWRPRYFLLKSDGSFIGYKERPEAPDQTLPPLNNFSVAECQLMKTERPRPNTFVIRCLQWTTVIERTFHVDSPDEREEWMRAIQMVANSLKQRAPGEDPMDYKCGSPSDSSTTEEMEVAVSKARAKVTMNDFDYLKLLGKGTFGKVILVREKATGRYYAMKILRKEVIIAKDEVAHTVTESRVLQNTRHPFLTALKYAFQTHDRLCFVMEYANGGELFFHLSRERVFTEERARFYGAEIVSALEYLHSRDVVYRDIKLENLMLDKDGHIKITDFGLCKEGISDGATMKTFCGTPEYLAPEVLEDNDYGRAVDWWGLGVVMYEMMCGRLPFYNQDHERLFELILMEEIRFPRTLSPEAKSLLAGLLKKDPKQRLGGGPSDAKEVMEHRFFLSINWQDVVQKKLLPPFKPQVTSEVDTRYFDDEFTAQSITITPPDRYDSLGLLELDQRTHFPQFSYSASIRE
Protocol: as §1, §2, §3, §4, §5, §6

p-Akt3 in WM115 cells = target: T3, p-Akt3 in WM115 cells (Homo sapiens, UniProt Q9Y243); assay: Phospho-Akt cellular SureFire assay, p-Akt3 in WM115 cells; assay type: cell-based; conditions: insulin stimulated, read-out: Biological Assay 2 IC50 (nM) Akt3 WM115
T3 construct: SureFire assays to detect cellular p-Akt1, p-Akt2 and p-Akt3 levels in WM115 cells (Akt2/3) and LNCaP cells (Akt1); endogenous in cells; host or cells: WM115 (ECACC 91061232), insulin-stimulated
T3 sequence (Q9Y243 whole entry): as the sequence (Q9Y243 whole entry) above
Description: (§7) Biological Assay 2: Phospho-Akt (p-Akt) Cellular SureFire Assays
(§8) The following describes SureFire assays to detect cellular p-Akt1, p-Akt2 and p-Akt3 levels in WM115 cells (Akt2/3) and LNCaP cells (Akt1). In the case of Akt2 and Akt3, Streptavidin-coated donor beads capture a biotinylated anti-mouse antibody that in turn recognises a mouse total Akt antibody which is specific to each isoform. The protein A-conjugated acceptor beads capture an antibody that recognises the phosphoprotein. Similarly in the Akt1 kit, the donor and acceptor beads are used to capture each antibody pair consisting of an antibody that specifically recognises Akt1 as well as an antibody that recognises the phosphoprotein. In each case, close proximity of the beads allows energy transfer from donor to acceptor.
(§9) Custom kit from TGR/Perkin Elmer for Akt2/3 containing anti-(pThr308)Akt antibody and biotinylated anti-mouse capture antibody.
Total Akt3 antibody (R&D Systems MAB 1463)
(§10) WM115 cells (ECACC, 91061232) cultured in MEM culture media (M2279) supplemented with 2 mM L-glutamine (G7513), 1% non-essential amino acids (M7145), 1% sodium pyruvate (S8636) and 10% FBS (F0804)
(§11) Cell treatment: 1×10^5 WM115 cells or 5×10^4 LNCaP cells were seeded into each well of a 96 well poly-D-Lysine coated tissue culture plate and incubated overnight at 37° C.+5% CO2. Media was removed from cells and replaced with assay buffer consisting of the full culture media described above but with 0.1% FBS instead of 10% FBS. Only WM115 cells were stimulated at 37° C.+5% CO2 for 10 min with 5 μL insulin at a final concentration of 100 nM. Cells were incubated with 5 μL of test compound at a final DMSO concentration of 0.3% for 15 min at 37° C.+5% CO2. Cell lysis was carried out according to kit instructions.
(§12) Assay format (performed in subdued lighting): 4 μL cell lysate and 5 μL reaction buffer were incubated together in the dark at room temperature for 2 h. Reaction buffer was supplemented with a 1/5 dilution of activation buffer, a 1/50 dilution of acceptor beads and in the case of the custom kits, antibodies were added at dilutions of 1/20,000 for Akt2 and 1/2,000 for Akt3.
(§13) 2 μL dilution buffer, supplemented with a 1/20 dilution of donor beads was added to each well and incubated for a further 2 h. Plates were read with the EnVision® Multilabel Plate Reader and using the AlphaScreen settings. Compound IC50 was determined using a 4-parameter equation.

p-Akt2 in WM115 cells = target: T4, p-Akt2 in WM115 cells (Homo sapiens, UniProt P31751); assay: Phospho-Akt cellular SureFire assay, p-Akt2 in WM115 cells; assay type: cell-based; conditions: insulin stimulated, read-out: Biological Assay 2 IC50 (nM) Akt2 WM115
T4 construct: SureFire assays to detect cellular p-Akt1, p-Akt2 and p-Akt3 levels in WM115 cells (Akt2/3) and LNCaP cells (Akt1); endogenous in cells; host or cells: WM115 (ECACC 91061232), insulin-stimulated
T4 sequence (P31751 whole entry): as the sequence (P31751 whole entry) above
Description: as §7, §8, §9
Total Akt2 antibody (NEB UK, 5239)
as §10, §11, §12, §13

Akt1 = target: T5, Akt1 (Homo sapiens, UniProt P31749); assay: Akt activation assay (PDK1-mediated activation, LANCE Ultra crosstide TR-FRET), Akt1; assay type: biochemical; conditions: read-out: Biological Assay 1 IC50 (nM) Akt1
T5 construct: unspecified tag, removed (detagged) (cleaved yes); purchased SignalChem and Proteros (Akt1); Merck Millipore (PDK1) 14-452 (PDK1); none given for Akt1
T5 sequence (P31749 whole entry): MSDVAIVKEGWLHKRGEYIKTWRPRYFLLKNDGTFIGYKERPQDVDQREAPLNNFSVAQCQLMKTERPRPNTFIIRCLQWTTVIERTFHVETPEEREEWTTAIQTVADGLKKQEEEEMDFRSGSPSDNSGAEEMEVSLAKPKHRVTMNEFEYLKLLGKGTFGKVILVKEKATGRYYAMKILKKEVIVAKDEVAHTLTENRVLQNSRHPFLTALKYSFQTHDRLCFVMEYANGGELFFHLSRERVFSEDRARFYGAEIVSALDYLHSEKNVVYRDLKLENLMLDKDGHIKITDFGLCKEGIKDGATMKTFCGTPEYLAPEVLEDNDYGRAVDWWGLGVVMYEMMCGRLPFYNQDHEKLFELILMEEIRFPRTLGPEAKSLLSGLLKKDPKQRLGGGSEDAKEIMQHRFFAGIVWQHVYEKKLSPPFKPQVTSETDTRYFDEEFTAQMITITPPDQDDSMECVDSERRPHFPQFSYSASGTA
Protocol: as §1, §2, §3, §4, §5, §6

SMILES: COC(=O)N(C)[C@H]1CC[C@H](CC(=O)Nc2cc(-c3ccccc3F)c(-c3ccc([C@]4(N)C[C@](C)(O)C4)cc3)cn2)CC1 [Example 96, Methyl (trans-4-(2-((5-(4-(trans-1-amino-3-hydroxy-3-methylcyclobutyl)phenyl)-4-(2-fluorophenyl)pyridin-2-yl)amino)-2-oxoethyl)cyclohexyl)(methyl)carbamate]
- IC50 (Akt3): 18 nM
- IC50 (Akt2): 140 nM
- IC50 (p-Akt3 in WM115 cells): 51 nM
- IC50 (p-Akt2 in WM115 cells): 1300 nM

SMILES: CC(=O)N(C)[C@H]1CC[C@H](CC(=O)Nc2cc(-c3ccsc3)c(-c3ccc(C4(N)CCC4)cc3)nn2)CC1 [Example A97, N-(6-(4-(1-aminocyclobutyl)phenyl)-5-(thiophen-3-yl)pyridazin-3-yl)-2-(trans-4-(N-methylacetamido)cyclohexyl)acetamide]
- IC50 (Akt3): 9 nM
- IC50 (Akt2): 430 nM
- IC50 (p-Akt3 in WM115 cells): 41 nM
- IC50 (p-Akt2 in WM115 cells): 3200 nM

SMILES: CCC(=O)N(C)[C@H]1CC[C@H](CC(=O)Nc2cnc(-c3ccc(C4(N)CC4)c(F)c3)c(-c3ccccc3)c2)CC1 [Example 90, N-(trans-4-(2-((6-(4-(1-aminocyclopropyl)-3-fluorophenyl)-5-phenylpyridin-3-yl)amino)-2-oxoethyl)cyclohexyl)-N-methylpropionamide]
- IC50 (Akt3): 120 nM
- IC50 (Akt2): 2500 nM
- IC50 (p-Akt3 in WM115 cells): 170 nM
- IC50 (p-Akt2 in WM115 cells): 6500 nM

SMILES: Cc1cscc1-c1cc(NC(=O)C[C@H]2CC[C@H](N(C)S(C)(=O)=O)CC2)cnc1-c1ccc(C2(N)CCC2)cc1 [Example 19, N-(6-(4-(1-aminocyclobutyl)phenyl)-5-(4-methylthiophen-3-yl)pyridin-3-yl)-2-(trans-4-(N-methylmethylsulfonamido)cyclohexyl)acetamide]
- IC50 (Akt1): > 30000 nM
- IC50 (Akt3): 6400 nM
- IC50 (Akt2): > 26000 nM

SMILES: COC(=O)N(C)[C@H]1CC[C@H](CC(=O)Nc2cc(-c3ccsc3)c(-c3ccc([C@]4(N)C[C@](C)(O)C4)cc3)cn2)CC1 [Example 89, Methyl (trans-4-(2-((5-(4-(trans-1-amino-3-hydroxy-3-methylcyclobutyl)phenyl)-4-(thiophen-3-yl)pyridin-2-yl)amino)-2-oxoethyl)cyclohexyl)(methyl)carbamate]
- IC50 (p-Akt3 in WM115 cells): 57 nM
- IC50 (p-Akt2 in WM115 cells): 3000 nM

SMILES: C[C@H](N)c1ccc(-c2ncc(NC(=O)C[C@H]3CC[C@H](N(C)S(C)(=O)=O)CC3)cc2-c2ccccc2)cc1 [Example A13, N-(6-(4-((S)-1-aminoethyl)phenyl)-5-phenylpyridin-3-yl)-2-(trans-4-(N-methylmethylsulfonamido)cyclo-hexyl)acetamide]
- IC50 (Akt1): > 30000 nM
- IC50 (Akt3): 830 nM
- IC50 (Akt2): 8100 nM

SMILES: NC1(c2ccc(-c3ncc(NC(=O)C[C@H]4CC[C@H](NC(=O)C(F)F)CC4)cc3-c3ccccc3)cc2)CC1 [Example A42, N-(trans-4-(2-((6-(4-(1-aminocyclopropyl)phenyl)-5-phenylpyridin-3-yl)amino)-2-oxoethyl)cyclohexyl)-2,2-difluoroacetamide]
- IC50 (Akt1): 6900 nM
- IC50 (Akt3): 280 nM
- IC50 (Akt2): 810 nM

SMILES: CN(C(=O)C1(C)CC1)[C@H]1CC[C@H](CC(=O)Nc2cnc(-c3ccc(C(C)(C)N)cc3)c(-c3ccccc3)c2)CC1 [Example A31, N-(trans-4-(2-((6-(4-(2-aminopropan-2-yl)phenyl)-5-phenylpyridin-3-yl)amino)-2-oxoethyl)cyclohexyl)-N,1-dimethylcyclopropane-1-carboxamide]
- IC50 (Akt1): > 30000 nM
- IC50 (Akt3): 1400 nM
- IC50 (Akt2): 11000 nM

SMILES: Cc1nncn1[C@H]1CC[C@H](CC(=O)Nc2cnc(-c3ccc(C(C)(C)N)cc3)c(-c3ccccc3)c2)CC1 [Example 23, N-(6-(4-(2-aminopropan-2-yl)phenyl)-5-phenylpyridin-3-yl)-2-(trans-4-(3-methyl-4H-1,2,4-triazol-4-yl)cyclohexyl)acetamide]
- IC50 (Akt1): > 30000 nM
- IC50 (Akt3): 430 nM
- IC50 (Akt2): 11000 nM

SMILES: COC1CCC(CC(=O)Nc2cnc(-c3ccc(C4(N)COC4)cc3)c(-c3ccccc3)c2)CC1 (mixture of isomers) [Example 21, N-(6-(4-(3-aminooxetan-3-yl)phenyl)-5-phenylpyridin-3-yl)-2-(4-methoxycyclohexyl)acetamide]
- IC50 (Akt1): > 55000 nM
- IC50 (Akt3): 210 nM
- IC50 (Akt2): 1100 nM

SMILES: CC(=O)N(C)[C@H]1CC[C@H](CC(=O)Nc2cnc(-c3ccc([C@@H](C)N)cc3)c(-c3ccccc3)c2)CC1 [Example 8, N-(6-(4-((R)-1-aminoethyl)phenyl)-5-phenylpyridin-3-yl)-2-(trans-4-(N-methylacetamido)cyclohexyl)acetamide]
- IC50 (Akt1): 12000 nM
- IC50 (Akt3): 51 nM
- IC50 (Akt2): 710 nM

SMILES: CN(C(=O)CC1CC1)[C@H]1CC[C@H](CC(=O)Nc2cnc(-c3ccc(C(C)(C)N)cc3)c(-c3ccccc3)c2)CC1 [Example A32, N-(trans-4-(2-((6-(4-(2-aminopropan-2-yl)phenyl)-5-phenylpyridin-3-yl)amino)-2-oxoethyl)cyclohexyl)-2-cyclopropyl-N-methylacetamide]
- IC50 (Akt1): > 30000 nM
- IC50 (Akt3): 630 nM
- IC50 (Akt2): 9700 nM

SMILES: CC(C)(C)C(=O)N[C@H]1CC[C@H](CC(=O)Nc2cnc(-c3ccc(C4(N)CCC4)cc3)c(-c3ccsc3)c2)CC1 [Example A40, N-(trans-4-(2-((6-(4-(1-aminocyclobutyl)phenyl)-5-(thiophen-3-yl)pyridin-3-yl)amino)-2-oxoethyl)cyclohexyl)pivalamide]
- IC50 (Akt1): > 27000 nM
- IC50 (Akt3): 25 nM
- IC50 (Akt2): 810 nM

SMILES: CC(=O)N[C@H]1CC[C@H](CC(=O)Nc2cnc(-c3ccc([C@H](C)N)cc3)c(-c3ccccc3)c2)CC1 [Example A8, 2-(trans-4-acetamidocyclohexyl)-N-(6-(4-((S)-1-aminoethyl)phenyl)-5-phenylpyridin-3-yl)acetamide]
- IC50 (Akt1): > 30000 nM
- IC50 (Akt3): 530 nM
- IC50 (Akt2): 6900 nM

SMILES: NC1(c2ccc(-c3ncc(NC(=O)C[C@H]4CC[C@H](NS(=O)(=O)C5CC5)CC4)cc3-c3ccccc3)cc2)COC1 [Example 37, N-(6-(4-(3-aminooxetan-3-yl)phenyl)-5-phenylpyridin-3-yl)-2-(trans-4-(cyclopropanesulfonamido)cyclohexyl)acetamide]
- IC50 (Akt1): > 30000 nM
- IC50 (Akt3): 56 nM
- IC50 (Akt2): 590 nM
